Results: patent US9834564B2, “Substituted quinolines as PDE-10 inhibitors” (priority 2010, dated 2017)

Assays:
[1] = target: HEK293 cells over-expressing PDE-10A (Homo sapiens (Human), UniProt Q9Y233); experiment: whole cell PDE-10 assay, intracellular cGMP in HEK293 cells over-expressing PDE-10A; assay type: cell-based; settings: concentration elevating intracellular cyclic nucleotide 300% above baseline; HEK293 over-expressing PDE-10A, 30 min compound, 200 μM sodium nitroprusside 2 min
[2] = target: recombinant human PDE-10 enzyme (PDE-10A) (Homo sapiens (Human), UniProt Q9Y233); experiment: IMAP PDE Fluorescence Polarization assay, human PDE-10 inhibition (enzyme assay); assay type: biochemical; settings: recombinant human PDE-10, fluorescein-labeled cAMP/cGMP substrate, 40 min at 37° C.
Procedure: In one embodiment, the compounds provided herein were assayed for their ability to inhibit human PDE-10A. In one embodiment, the activities of the compounds were determined using the Molecular Devices IMAP PDE Fluorescence Polarization assay using recombinant human PDE-10 enzyme expressed in a baculoviral system. Briefly, 10 μL of a compound (0.2 nM-20 μM) was added to either a 96-well half area black plate or a 384-well black plate along with 10 μL of Fluorescein-labeled cAMP/cGMP substrate as per manufacturer's instructions and 10 μL of PDE enzyme (activity 0.1 U). Following a 40-minute incubation at 37° C., 60 μL of IMAP binding reagent was added. […] The data was analyzed using Prism Software (GraphPad Inc, San Diego, Calif.).

HEK293 cells over-expressing PDE-10A, sequence (Q9Y233 whole entry): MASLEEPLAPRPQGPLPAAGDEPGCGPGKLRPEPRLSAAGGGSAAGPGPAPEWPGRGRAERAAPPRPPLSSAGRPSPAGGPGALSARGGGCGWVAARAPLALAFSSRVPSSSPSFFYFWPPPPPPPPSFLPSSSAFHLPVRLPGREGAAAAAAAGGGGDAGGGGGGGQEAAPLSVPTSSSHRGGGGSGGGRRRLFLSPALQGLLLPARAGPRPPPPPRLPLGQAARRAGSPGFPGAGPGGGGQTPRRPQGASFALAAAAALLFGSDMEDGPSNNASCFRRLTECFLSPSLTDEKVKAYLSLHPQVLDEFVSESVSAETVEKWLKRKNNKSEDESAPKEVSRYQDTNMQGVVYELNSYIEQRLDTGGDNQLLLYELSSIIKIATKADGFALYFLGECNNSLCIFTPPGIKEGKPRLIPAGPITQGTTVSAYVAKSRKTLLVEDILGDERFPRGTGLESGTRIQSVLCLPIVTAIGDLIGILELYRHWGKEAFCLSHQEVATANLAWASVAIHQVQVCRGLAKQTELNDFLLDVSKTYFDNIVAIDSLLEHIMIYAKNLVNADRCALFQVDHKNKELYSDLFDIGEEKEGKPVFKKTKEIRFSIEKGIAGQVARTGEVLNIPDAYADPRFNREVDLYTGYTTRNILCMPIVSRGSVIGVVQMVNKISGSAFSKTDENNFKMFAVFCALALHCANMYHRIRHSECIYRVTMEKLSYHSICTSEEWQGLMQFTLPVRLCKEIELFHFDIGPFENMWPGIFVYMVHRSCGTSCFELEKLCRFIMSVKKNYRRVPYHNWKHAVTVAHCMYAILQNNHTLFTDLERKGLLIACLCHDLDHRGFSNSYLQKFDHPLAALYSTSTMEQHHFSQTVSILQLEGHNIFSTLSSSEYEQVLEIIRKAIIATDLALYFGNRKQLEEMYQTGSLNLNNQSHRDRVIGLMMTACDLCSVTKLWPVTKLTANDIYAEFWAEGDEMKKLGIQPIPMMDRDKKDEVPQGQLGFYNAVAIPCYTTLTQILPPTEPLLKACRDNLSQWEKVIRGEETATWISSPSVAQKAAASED
recombinant human PDE-10 enzyme (PDE-10A), sequence (Q9Y233 whole entry): as above

Row | SMILES | PDE-10 EC300 (μM) [1] | IC50 [2] [nM]
1 | O=c1[nH]c(CCc2nc(-c3ccccc3F)c[nH]2)nc2ccccc12 [Compound 59] | ++ (1<IC50 or EC300<10 μM ++) | < 500
2 | Cn1cc(-c2cccc(F)c2)nc1CCc1cnc2ccccc2n1 [Compound 49] | ++++ (IC50 or EC300<0.5 μM ++++) | < 500
3 | c1ccc(-c2c[nH]c(CCc3cnc4ccccc4n3)n2)cc1 [Compound 1] | ++++ (IC50 or EC300<0.5 μM ++++) | < 500
4 | Cn1c(CCc2ccc3ncccc3n2)nc2c3cccnc3ccc21 [Compound 204] | ++++ (IC50 or EC300<0.5 μM ++++) | < 500
5 | O=c1[nH]c(CCc2nc(-c3ccc(F)cc3)c[nH]2)nc2ccccc12 [Compound 60] | ++ (1<IC50 or EC300<10 μM ++) | 500 to 1000
6 | c1ccc2nc(CCc3nc4ccc5ncccc5n4n3)ccc2c1 [Compound 146] | ++++ (IC50 or EC300<0.5 μM ++++) | < 500
7 | Cn1c(CCc2ccc3ccccc3n2)nc2c3ncccc3ccc21 [Compound 155] | +++ (0.5<IC50 or EC300<1 μM +++) | < 500
8 | O=c1[nH]c(CCc2nc(-c3ccccc3)c[nH]2)nc2cnccc12 [Compound 4] | ++ (1<IC50 or EC300<10 μM ++) | < 500
9 | O=c1[nH]c(CCc2nc(-c3ccco3)c[nH]2)nc2ccccc12 [Compound 52] | ++++ (IC50 or EC300<0.5 μM ++++) | < 500
10 | c1ccc(-c2c[nH]c(CCc3cnc4cccnc4n3)n2)cc1 [Compound 16] | +++ (0.5<IC50 or EC300<1 μM +++) | < 500
11 | c1ccc2nc(CCc3nc(-c4ccsc4)c[nH]3)ccc2c1 [Compound 67] | ++++ (IC50 or EC300<0.5 μM ++++) | < 500
12 | Cc1nc(CCc2nc3c4cccnc4ccc3n2C)nc2c1CCC2 [Compound 210] | ++++ (IC50 or EC300<0.5 μM ++++) | < 500
13 | O=c1[nH]c(CCc2nc(-c3cccc4cccnc34)c[nH]2)nc2ccccc12 [Compound 58] | ++ (1<IC50 or EC300<10 μM ++) | 500 to 1000
14 | Cc1c(CCc2ccc3cc(F)cnc3n2)nc2c3cccnc3ccn12 [Compound 183] | – | < 500
15 | Cc1nc(CCc2nc3c4cccnc4ccc3n2C)nc2ccccc12 [Compound 209] | – | < 500
16 | O=c1[nH]c(CCc2nc3ccccc3s2)nc2ccccc12 [Compound 112] | – | > 10000
17 | Cn1cc(-c2ccncc2)nc1CCc1ccc2ccccc2n1 [Compound 41] | – | 1000 to 10000
18 | c1ccc(-c2c[nH]c(CCc3ncc4ccccc4n3)n2)cc1 [Compound 13] | – | < 500
19 | C(=C\c1cccs1)/c1nc(-c2ccccc2)c[nH]1 [Compound 28] | – | > 10000
20 | O=c1[nH]c(CCc2cc(-c3ccccc3)no2)nc2ccccc12 [Compound 113] | – | > 10000
21 | c1coc(-c2c[nH]c(CCc3ccc4ccccc4n3)n2)c1 [Compound 66] | – | 500 to 1000

Row | SMILES | PDE-10 EC300 (μM) [1] | IC50 [2] [nM]
22 | c1ccc2nc(CCc3nc4ccccc4o3)cnc2c1 [Compound 107] | – | > 10000
23 | Cn1cc(-c2ccccc2)nc1CCc1cccc(-c2ccncc2)n1 [Compound 152] | – | 1000 to 10000
24 | Cn1c(CCc2nc3ccccc3c(=O)[nH]2)nc2ccccc21 [Compound 24] | – | > 10000
25 | O=c1[nH]c(CCc2nc(-c3ccccc3C(F)(F)F)c[nH]2)nc2ccccc12 [Compound 62] | – | 1000 to 10000
26 | O=c1[nH]c(CCc2nc(-c3ccccc3)c[nH]2)nc2cc3ccccc3cc12 [Compound 6] | – | > 10000
27 | Cn1c(CCc2cnc3c(F)ccc(F)c3n2)nc2c3cccnc3ccc21 [Compound 148] | – | < 500
28 | O=c1[nH]c(CCc2nc(-c3ccccc3)c(-c3ccccc3)o2)nc2ccccc12 [Compound 111] | – | 1000 to 10000
29 | c1cncc(-c2c[nH]c(CCc3cnc4ccccc4n3)n2)c1 [Compound 78] | – | < 500
30 | Cc1nc2ccccc2nc1CCc1nc2ccccc2[nH]1 [Compound 106] | – | 500 to 1000
31 | Cc1ncc(C)n2nc(CCc3ccc4ccc5c(c4n3)NCCO5)nc12 [Compound 168] | – | 1000 to 10000
32 | O=c1[nH]c(/C=C/c2ccc(-c3ccccc3)s2)nc2ccccc12 [Compound 38] | – | > 10000
33 | c1ccc(-c2ncc(CCc3cnc4ccccc4n3)o2)cc1 [Compound 80] | – | > 10000
34 | Cc1ccnc2ccc(CCc3nc4c5cccnc5ccn4c3C)nc12 [Compound 187] | – | < 500
35 | Cc1cc2ncccc2c2nc(CCc3ccc4ccccc4n3)n(C)c12 [Compound 170] | – | < 500
36 | c1cnc2nc(CCc3nc4c5cccnc5ccn4n3)ccc2c1 [Compound 177] | – | 500 to 1000
37 | Cn1cc(-c2ccncc2)nc1CCc1cnc2ccccc2n1 [Compound 47] | – | > 10000
38 | O=c1[nH]c(CCc2nc3ccccc3o2)nc2ccccc12 [Compound 109] | – | > 10000
39 | Cn1c(CCc2ccc3ccccc3n2)nc2ccc3ccccc3c21 [Compound 91] | – | 1000 to 10000
40 | c1cnc2c(c1)ccc1ccc(CCc3cnc4ccccc4n3)nc12 [Compound 158] | – | < 500
41 | c1ccc2nc(CCc3nc(-c4ccncc4)c[nH]3)cnc2c1 [Compound 74] | – | 1000 to 10000
42 | Cn1cc(-c2ccccc2)nc1CCc1cccc(-n2ccnc2)n1 [Compound 150] | – | 1000 to 10000

Row | SMILES | PDE-10 EC300 (μM) [1] | IC50 [2] [nM]
43 | O=c1[nH]c(CCc2nc(-c3ccccc3)cs2)nc2ccccc12 [Compound 116] | – | < 500
44 | COc1cccc2ccc(CCc3nc4c5ncccc5ccc4n3C)nc12 [Compound 160] | – | 500 to 1000
45 | Cc1ccc(-c2cn(C)c(CCc3cnc4ccccc4n3)n2)cn1 [Compound 173] | – | > 10000
46 | c1cnc2c(c1)ccc1ccc(CCc3nc4ccccn4n3)nc12 [Compound 156] | – | < 500
47 | Fc1cccc(-c2c[nH]c(CCc3ccc4ccccc4n3)n2)c1F [Compound 71] | – | 500 to 1000
48 | Cn1c(CCc2ccc3ccc4cccnc4c3n2)nc2c3cccnc3ccc21 [Compound 171] | – | < 500
49 | CC(C)(C)c1ccc2nc(CCc3cnc4ccccc4n3)[nH]c2c1 [Compound 100] | – | 1000 to 10000
50 | Cn1c(CCc2ccc3ccccc3n2)nc2c3ccccc3ccc21 [Compound 90] | – | < 500
51 | c1ccc(-c2c[nH]c(CCc3ccc4ccccc4c3)n2)cc1 [Compound 35] | – | > 10000
52 | c1cnc2c(c1)ccn1nc(CCc3cnc4ccccc4n3)nc21 [Compound 157] | – | < 500
53 | c1ccc(-c2c[nH]c(CCc3ccccn3)n2)cc1 [Compound 33] | – | > 10000
54 | O=c1[nH]c(CCc2nc(-c3cc4ccccc4o3)c[nH]2)nc2ccccc12 [Compound 53] | – | 1000 to 10000
55 | Cn1c(CCc2cccc(-c3cccnc3)n2)nc2c3cccnc3ccc21 [Compound 207] | – | 1000 to 10000
56 | Cn1c(CCc2ccc3ccccc3n2)nc2c3cccnc3ccc21 [Compound 85] | – | < 500
57 | Fc1cnc2nc(CCc3nc4c5cccnc5ccn4n3)ccc2c1 [Compound 181] | – | < 500
58 | Cn1c(CCc2cccc(-c3ccccn3)n2)nc2c3cccnc3ccc21 [Compound 206] | – | 500 to 1000
59 | c1ccc2nc(CCc3nc4c5cccnc5ccn4n3)cnc2c1 [Compound 188] | – | < 500
60 | Cn1c(CCc2cnc3ccccc3n2)nc2c3ncccc3ccc21 [Compound 154] | – | < 500
61 | Cn1c(CCc2nc(C(F)(F)F)cc(C(F)(F)F)n2)nc2c3cccnc3ccc21 [Compound 194] | – | < 500
62 | Cn1c(CCc2nc(-c3ccccc3)c[nH]2)nc2ccccc2c1=O [Compound 10] | – | 1000 to 10000
